Test results published in patent publication US8785445B2 (Array BioPharma Inc., priority 2008, dated 2014).

target: T1, human DP2 (Homo sapiens, UniProt Q9Y5Y4); test: DP-2 binding inhibition assay (3H-PGD2, membranes of DP2-expressing K562 cells); settings: 0.1% BSA, read-out: EC50 (nM) 0.1% BSA
T1 construct: expressed in transfected cells; membranes prepared
T1 sequence (Q9Y5Y4 1-395): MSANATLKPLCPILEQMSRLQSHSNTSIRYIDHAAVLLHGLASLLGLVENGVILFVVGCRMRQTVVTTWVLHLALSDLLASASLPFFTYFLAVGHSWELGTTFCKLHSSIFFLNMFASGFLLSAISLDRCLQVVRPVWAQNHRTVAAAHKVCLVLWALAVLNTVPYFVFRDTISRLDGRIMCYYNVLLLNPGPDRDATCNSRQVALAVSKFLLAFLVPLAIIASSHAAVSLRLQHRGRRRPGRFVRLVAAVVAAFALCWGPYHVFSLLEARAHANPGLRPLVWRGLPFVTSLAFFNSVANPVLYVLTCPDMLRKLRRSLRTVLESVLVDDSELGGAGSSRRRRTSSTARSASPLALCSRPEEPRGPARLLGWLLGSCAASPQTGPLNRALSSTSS
Experimental: The coding sequence of human DP2 was introduced into the human Leukemic cell line K562 by electroporation and stable clones expressing DP2 were obtained by limiting dilution followed by cell surface staining with a rat monoclonal antibody specific for human DP2. Membranes were prepared from one of these DP2 expressing clones and used to determine the ability of the compounds of the present invention to inhibit binding of prostaglandin D2 (PGD2) to its receptor DP2 in the presence of one or more of the following serum protein concentrations, 0.1% BSA, 1% HSA or 4% HSA, by the following procedure. […] After incubation for 60 minutes at room temperature, the assay was transferred to a filtration plate (#MAFB; Millipore Corporation, Bedford, Mass.), and washed three times with binding buffer. Radioactivity was measured by a scintillation counter (TopCount; PerkinElmer Life Sciences, Boston, Mass.). Nonspecific binding was determined by incubations in the presence of 1 μM unlabeled PGD2 or 5 μM of a known DP2 antagonist. IC50 values for inhibition of binding were determined for each compound tested from the inflexion point of a standard 4-parameter logistical curve fitted to the values obtained.

EC50 | Structure (SMILES)
17.9 nM | O=C(Nc1ccc(-c2ccc(C(F)(F)F)cc2)nn1)c1ccc(Oc2cc3c(cc2Cl)C(C(=O)O)CCO3)cc1 (stereo not drawn) [Example 98, Sodium 6-chloro-7-(4-(6-(4-(trifluoromethyl)phenyl)pyridazin-3-ylcarbamoyl)phenoxy)chroman-4-carboxylate]
12.9 nM | N#Cc1cc2c(cc1Oc1ccc(C(=O)Nc3nc4ccc(F)cc4s3)cc1)OCCC2C(=O)O (stereo not drawn) [Example 195, 6-cyano-7-(4-(6-fluorobenzo[d]thiazol-2-ylcarbamoyl)phenoxy) chroman-4-carboxylic acid]
16.9 nM | N#Cc1cc2c(cc1Oc1ccc(C(=O)Nc3ccc(C(F)(F)F)nc3)cc1)OCCC2C(=O)O (stereo not drawn) [Example 6, 7-(4-((6-(Trifluoromethyl)pyridin-3-yl)carbamoyl)phenoxy)-6-cyanochroman-4-carboxylic acid]
69 nM | N#Cc1cc2c(cc1Oc1ccc(C(=O)Nc3nc4ccccc4o3)cc1)OCCC2C(=O)O (stereo not drawn) [Example 203, 7-(4-(benzo[d]oxazol-2-ylcarbamoyl)phenoxy)-6-cyanochroman-4-carboxylic acid]
49.3 nM | Cc1nsc2ccc(NC(=O)c3ccc(Oc4cc5c(cc4C#N)C(C(=O)O)CCO5)cc3)cc12 (stereo not drawn) [Example 190, 6-cyano-7-(4-(3-methylbenzo[d]isothiazol-5-ylcarbamoyl)phenoxy) chroman-4-carboxylic acid]

same assay, conditions: 1% HSA, read-out: EC50 (nM) 1% HSA

EC50 | Structure (SMILES)
194 nM | N#Cc1cc2c(cc1Oc1ccc(C(=O)Nc3nc4ccc(F)cc4s3)cc1)OCCC2C(=O)O (stereo not drawn) [Example 195, 6-cyano-7-(4-(6-fluorobenzo[d]thiazol-2-ylcarbamoyl)phenoxy) chroman-4-carboxylic acid]
524 nM | N#Cc1cc2c(cc1Oc1ccc(C(=O)Nc3ccc(C(F)(F)F)nc3)cc1)OCCC2C(=O)O (stereo not drawn) [Example 6, 7-(4-((6-(Trifluoromethyl)pyridin-3-yl)carbamoyl)phenoxy)-6-cyanochroman-4-carboxylic acid]

same assay, conditions: 4% HSA, read-out: EC50 (nM) 4% HSA

EC50 | Structure (SMILES)
25.1 nM | COc1nc(C(F)(F)F)ccc1CCNC(=O)c1ccc(Oc2cc3c(cc2Cl)C(C(=O)O)CCO3)cc1 (stereo not drawn) [Example 80, Sodium 6-chloro-7-(4-(2-(2-methoxy-6-(trifluoromethyl)pyridin-3-yl)ethylcarbamoyl)phenoxy)chroman-4-carboxylate]
112 nM | O=C(Nc1ccc(-c2ccc(C(F)(F)F)cc2)nn1)c1ccc(Oc2cc3c(cc2Cl)C(C(=O)O)CCO3)cc1 (stereo not drawn) [Example 98, Sodium 6-chloro-7-(4-(6-(4-(trifluoromethyl)phenyl)pyridazin-3-ylcarbamoyl)phenoxy)chroman-4-carboxylate]
401 nM | O=C(Nc1cncc(-c2ccccc2)n1)c1ccc(Oc2cc3c(cc2Cl)C(C(=O)O)CCO3)cc1 (stereo not drawn) [Example 32, 6-Chloro-7-(4-(6-phenylpyrazin-2-ylcarbamoyl)phenoxy)chroman-4-carboxylic acid]
50.8 nM | N#Cc1cc2c(cc1Oc1ccc(C(=O)Nc3cccc(-c4cccc(C(F)(F)F)c4)n3)cc1)OCCC2C(=O)O (stereo not drawn) [Example 41, 6-Cyano-7-(4-(6-(3-(trifluoromethyl)phenyl)pyridin-2-ylcarbamoyl)-phenoxy)chroman-4-carboxylic acid]
582 nM | O=C(Nc1cccc(-c2ccccc2Cl)n1)c1ccc(Oc2cc3c(cc2Cl)C(C(=O)O)CCO3)cc1 (stereo not drawn) [Example 56, 6-Chloro-7-(4-(6-(2-chlorophenyl)pyridin-2-ylcarbamoyl)phenoxy)chroman-4-carboxylic acid]
203 nM | O=C(Nc1ccc(-c2ccc(Cl)c(F)c2)nn1)c1ccc(Oc2cc3c(cc2Cl)C(C(=O)O)CCO3)cc1 (stereo not drawn) [Example 67, Sodium 6-chloro-7-(4-(6-(4-chloro-3-fluorophenyl)pyridazin-3-ylcarbamoyl)phenoxy)chroman-4-carboxylate]
5000 nM | O=C(Nc1ccc(F)c(-c2ccc(Cl)cc2)n1)c1ccc(Oc2cc3c(cc2Cl)C(C(=O)O)CCO3)cc1 (stereo not drawn) [Example 44, Sodium 6-Chloro-7-(4-(6-(4-chlorophenyl)-5-fluoropyridin-2-ylcarbamoyl)phenoxy)chroman-4-carboxylate]
687 nM | O=C(NCCc1ncc(Cl)cc1Cl)c1ccc(Oc2cc3c(cc2Cl)C(C(=O)O)CCO3)cc1 (stereo not drawn) [Example 138, Sodium 6-chloro-7-(4-(2-(3,5-dichloropyridin-2-yl)ethylcarbamoyl)phenoxy)chroman-4-carboxylate]
539 nM | O=C(Nc1cnc(-c2ccc(C(F)(F)F)cc2)cn1)c1ccc(Oc2cc3c(cc2Cl)C(C(=O)O)CCO3)cc1 (stereo not drawn) [Example 61, Sodium 6-chloro-7-(4-(5-(4-(trifluoromethyl)phenyl)pyrazin-2-ylcarbamoyl)phenoxy)chroman-4-carboxylate]
740 nM | CCOc1cccc(NC(=O)c2ccc(Oc3cc4c(cc3Cl)C(C(=O)O)CCO4)cc2)n1 (stereo not drawn) [Example 78, 6-Chloro-7-(4-(6-ethoxypyridin-2-ylcarbamoyl)phenoxy)chroman-4-carboxylic acid]
166 nM | O=C(Nc1cccc(-c2cccc(F)c2F)n1)c1ccc(Oc2cc3c(cc2Cl)C(C(=O)O)CCO3)cc1 (stereo not drawn) [Example 90, 6-chloro-7-(4-(6-(2,3-difluorophenyl)pyridin-2-ylcarbamoyl)phenoxy)chroman-4-carboxylic acid]
135 nM | N#Cc1cc2c(cc1Oc1ccc(C(=O)Nc3cccc(-c4cccc(Cl)c4)n3)cc1)OCCC2C(=O)O (stereo not drawn) [Example 50, 7-(4-(6-(3-Chlorophenyl)pyridin-2-ylcarbamoyl)phenoxy)-6-cyanochroman-4-carboxylic acid]
247 nM | O=C(Nc1ccn(Cc2ccc(Cl)cc2)n1)c1ccc(Oc2cc3c(cc2Cl)C(C(=O)O)CCO3)cc1 (stereo not drawn) [Example 179, 6-chloro-7-(4-(1-(4-chlorobenzyl)-1H-pyrazol-3-ylcarbamoyl)phenoxy)chroman-4-carboxylic acid]
241 nM | O=C(Nc1cccc(-c2cccc(Cl)c2)n1)c1ccc(Oc2cc3c(cc2Cl)C(C(=O)O)CCO3)cc1 (stereo not drawn) [Example 34, 6-Chloro-7-(4-(6-(3-chlorophenyl)pyridin-2-ylcarbamoyl)phenoxy)chroman-4-carboxylic acid]
426 nM | O=C(Nc1ncc(-c2cccc(Cl)c2)cn1)c1ccc(Oc2cc3c(cc2Cl)C(C(=O)O)CCO3)cc1 (stereo not drawn) [Example 134, 6-Chloro-7-(4-(5-(3-chlorophenyl)pyrimidin-2-ylcarbamoyl)phenoxy)chroman-4-carboxylic acid]
187 nM | O=C(Nc1cnn(-c2cccc(Cl)c2)c1)c1ccc(Oc2c(Cl)cc3c(c2Cl)OCCC3C(=O)O)cc1 (stereo not drawn) [Example 165, Sodium 6,8-dichloro-7-(4-(1-(3-chlorophenyl)-1H-pyrazol-4-ylcarbamoyl)phenoxy)chroman-4-carboxylate]
261 nM | O=C(Nc1nccc(-c2cccc(Cl)c2)n1)c1ccc(Oc2cc3c(cc2Cl)C(C(=O)O)CCO3)cc1 (stereo not drawn) [Example 133, 6-Chloro-7-(4-(4-(3-chlorophenyl)pyrimidin-2-ylcarbamoyl)phenoxy)chroman-4-carboxylic acid]
67.5 nM | O=C(Nc1nc(-c2ccc(F)cc2)cs1)c1ccc(Oc2cc3c(cc2Cl)C(C(=O)O)CCO3)cc1 (stereo not drawn) [Example 153, 6-chloro-7-(4-(4-(4-fluorophenyl)thiazol-2-ylcarbamoyl)phenoxy)chroman-4-carboxylic acid]
120 nM | Cc1cccc(-c2cccc(NC(=O)c3ccc(Oc4cc5c(cc4C#N)C(C(=O)O)CCO5)cc3)n2)c1C (stereo not drawn) [Example 40, 6-Cyano-7-(4-(6-(2,3-dimethylphenyl)pyridin-2-ylcarbamoyl)-phenoxy)-chroman-4-carboxylic acid]
1370 nM | O=C(NCCn1ccc(-c2ccc(Cl)cc2)n1)c1ccc(Oc2cc3c(cc2Cl)C(C(=O)O)CCO3)cc1 (stereo not drawn) [Example 219, 6-chloro-7-(4-(2-(3-(4-chlorophenyl)-1H-pyrazol-1-yl)ethylcarbamoyl)phenoxy) chroman-4-carboxylic acid]
100 nM | O=C(Nc1ccc(-c2ccc(C(F)(F)F)cc2)cn1)c1ccc(Oc2cc3c(cc2Cl)C(C(=O)O)CCO3)cc1 (stereo not drawn) [Example 118, 6-Chloro-7-(4-(5-(4-(trifluoromethyl)phenyl)pyridin-2-ylcarbamoyl)phenoxy)chroman-4-carboxylic acid]
664 nM | CN(C)c1ncccc1CCNC(=O)c1ccc(Oc2cc3c(cc2Cl)C(C(=O)O)CCO3)cc1 (stereo not drawn) [Example 225, 6-chloro-7-(4-(2-(2-(dimethylamino)pyridin-3-yl)ethylcarbamoyl)phenoxy) chroman-4-carboxylic acid]
869 nM | COc1ccc(-c2ccc(NC(=O)c3ccc(Oc4cc5c(cc4Cl)C(C(=O)O)CCO5)cc3)nn2)cn1 (stereo not drawn) [Example 68, Sodium 6-chloro-7-(4-(6-(6-methoxypyridin-3-yl)pyridazin-3-ylcarbamoyl)phenoxy)chroman-4-carboxylate]
45.2 nM | CN(C)c1nc(C2CC2)ccc1CCNC(=O)c1ccc(Oc2cc3c(cc2Cl)C(C(=O)O)CCO3)cc1 (stereo not drawn) [Example 187, 6-Chloro-7-(4-(2-(6-cyclopropyl-2-(dimethylamino)pyridin-3-yl)ethylcarbamoyl)phenoxy)chroman-4-carboxylic acid]
5460 nM | O=C(Nc1nnc(-c2ccccc2)s1)c1ccc(Oc2cc3c(cc2Cl)C(C(=O)O)CCO3)cc1 (stereo not drawn) [Example 148, 6-chloro-7-(4-(5-phenyl-1,3,4-thiadiazol-2-ylcarbamoyl)phenoxy)chroman-4-carboxylic acid]
63 nM | O=C(Nc1ccc(-c2ccc(C(F)(F)F)c(Cl)c2)nn1)c1ccc(Oc2cc3c(cc2Cl)C(C(=O)O)CCO3)cc1 (stereo not drawn) [Example 60, Sodium 6-chloro-7-(4-(6-(3-chloro-4-(trifluoromethyl)phenyl)pyridazin-3-ylcarbamoyl)phenoxy)chroman-4-carboxylate]
